Measurements taken from BindingDB's records for doi:10.1021/jm0010466 (2001).
pKd: −log10 of the molar value. Where a SMILES comes first, the peptide text is derived from it.

Experiment: Binding affinity towards 23-nt RNA oligonucleotide from the 5'-untranslated region of the cholestery ester transfer protein (CETP)

CC(C)C[C@H](NC(=O)[C@H](CCCCN)NC(=O)[C@H](Cc1ccc(O)cc1)NC(=O)[C@@H](N)CCCCN)C(=O)N[C@@H](Cc1ccc(O)cc1)C(=O)N[C@@H](CCCCN)C(=O)N[C@@H](CS)C(N)=O (H-KYKLYKC-NH2)
pKd: 4.49
